From article PMC5821110 (Cancer immunology research, 2017)

system: HLA-A2; assay: Peptide binding affinity: stabilization of HLA-A2 on TAP-deficient T2 cells; conditions: stabilization (normalized mean fluorescence intensity) of HLA-A2 on TAP-deficient T2 cells by test peptide relative to a non-binding peptide; six hours incubation; flow cytometry

In order of falling Observed relative binding:
1. FLQGISPKI [RF]  4.97
2. FLQGISPKA [RF-IA]  4.78
3. FLQGISPKV [RF-IV]  4.25
4. RLQGISPKL [IL]  3.89
5. RLQGISPKV [IV]  3.88
6. RLQGISPKA [IA]  3.79
7. RLQGISPKI [Nat]  3.61
8. RIQGISPKI [LI]  2.34
9. RAQGISPKI [LA]  1.31
10. RLQGISPKP [IP]  1.07

system: E.G7-OVA PD-L1^high tumors; assay: Tumor treatment study: peptide immunization after OT-1 adoptive transfer; format: in vivo, C57BL/6 mice; conditions: tumors removed on day 40, flow cytometry; 100 µg peptide in CFA

For SIINTEKL [FT], the “Number of CD8 TILs (percent of CD45^+ cells) compared to high-affinity vaccination” value was “significantly increased”.
